Results from patent US10443054B2, “Methods for identifying and treating invasive/metastatic breast cancers” (Massachusetts Institute of Technology, priority 2016, dated 2019).

Key:
[1] = test system: LM2 cells; test: Extravasation (experimental lung) metastasis assay, tail vein injection; format: in vivo, mice; settings: LM2 cells stably expressing shRNA injected via tail vein, 28 days; vs Ctrl-shRNA
Method: For the experimental lung metastasis assay, 5×10^4 cells in 100 μl of Hank's Balanced Salt Solution were injected into the lateral tail vein of 6- to 8-week-old female NOD/SCID/IL2RV-null mice. The mice were sacrificed 28 days post-injection and lungs were inflated with 3.8% formaldehyde imaged with a fluorescence microscope and subsequently fixed overnight with 3.8% formaldehyde. ZsGreen-positive foci were counted in the left pulmonary lobe using ImageJ and counts were manually curated as needed.

[2] = test system: MDA-MB-231 cells; test: Inverted invasion assay through matrigel towards EGF; settings: nuclei of invading cells above 40 μm

Lpd-shRNA2: shRNA targeting human Lpd, TTCCCATACTTTGCAATGCGG
number of ZsGreen-positive metastatic foci in the left pulmonary lobe [1]: not significant

CNC(=O)[C@H](Cc1c[nH]c2ccccc12)NC(=O)[C@@H](CC(=O)NO)CC(C)C [MMP inhibitor, GM6001]
invasion of Lpd overexpressing cells ([2]; MDA-MB-231 expressing GFP-Lpd, 10 μM GM6001 vs DMSO): reduced invasion
invasion of GFP expressing control cells ([2]; MDA-MB-231 expressing GFP, 10 μM GM6001 vs DMSO): reduced invasion

Cc1ccc(NC(=O)c2ccc(CN3CCN(C)CC3)cc2)cc1Nc1nccc(-c2cccnc2)n1 [ST1571, STI-571]
breast cancer cell invasiveness towards EGF ([2]; MDA-MB-231, Dasatinib 10 nM, STI571 10 μM, 72 hours vs DMSO): impaired
